Measured values from US20080026996A1, “Selective Vpac2 Receptor Reptide Agonists” (ELI LILLY AND COMPANY, priority 2004, published 2008).
Where a SMILES comes first, the peptide text is derived from it. Where no end group is shown, it is not given here. [ ]: non-standard residue; d: D form. The star is where a group is joined. Hexanoyl = CCCCCC(=O)*; Aib = CC(C)(N)C(=O)O

How the values were obtained:
[1] = Rat serum stability studies (remaining active peptide by DiscoveRx cAMP on CHO-VPAC2 cells); assay type: in vitro ADME
Procedure, shortened: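 Rat serum, 18 h: +aprotinin aliquot at 4° C, no-aprotinin aliquot at 37° C. Then 30 min RT step, supernatant removed, 1 h shaking at 300 rpm. DiscoveRx cAMP kit on CHO-VPAC2; EC50 from cAMP data vs standards.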

human VPAC1 = target: T1, human VPAC1 (Homo sapiens, UniProt P32241); test: Filter binding assay, membranes of cells transiently transfected with human VPAC1, 125I-labeled VIP tracer (Table 2); set-up: expressed in transfected cells; settings: read-out: Human VPAC1 Receptor Binding
T1 sequence (P32241 31-457): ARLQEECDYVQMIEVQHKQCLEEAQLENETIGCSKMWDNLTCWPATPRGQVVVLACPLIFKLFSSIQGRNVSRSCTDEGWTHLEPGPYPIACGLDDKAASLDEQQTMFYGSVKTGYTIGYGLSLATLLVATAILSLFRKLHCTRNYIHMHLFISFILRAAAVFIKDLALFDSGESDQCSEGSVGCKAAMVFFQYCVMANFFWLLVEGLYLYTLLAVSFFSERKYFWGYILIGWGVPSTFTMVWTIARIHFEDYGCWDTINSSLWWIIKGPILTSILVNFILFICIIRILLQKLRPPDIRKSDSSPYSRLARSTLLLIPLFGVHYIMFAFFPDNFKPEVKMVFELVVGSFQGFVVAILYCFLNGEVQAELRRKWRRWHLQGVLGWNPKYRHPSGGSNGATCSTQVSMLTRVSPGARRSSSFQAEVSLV
Procedure, shortened: (§1)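 Scintillation counting of filter-retained radioligand gave the read-out. Compounds competed with the labelled tracer (about 40000 cpm) for 2.5 μg membranes during 1 hour of shaking in HEPES pH 7.4 buffer containing 0.5% BSA.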

human VPAC2 [2] = target: T2, human VPAC2 (Homo sapiens, UniProt P41587); test: Alpha screen cAMP in vitro potency, human VPAC2 receptor; assay type: cell-based; settings: cAMP generation; single result from two analyses performed in a single run; read-out: Human VPAC2 Receptor: Alpha Screen EC50
T2 construct: expressed in transfected cells
T2 sequence (P41587 24-438): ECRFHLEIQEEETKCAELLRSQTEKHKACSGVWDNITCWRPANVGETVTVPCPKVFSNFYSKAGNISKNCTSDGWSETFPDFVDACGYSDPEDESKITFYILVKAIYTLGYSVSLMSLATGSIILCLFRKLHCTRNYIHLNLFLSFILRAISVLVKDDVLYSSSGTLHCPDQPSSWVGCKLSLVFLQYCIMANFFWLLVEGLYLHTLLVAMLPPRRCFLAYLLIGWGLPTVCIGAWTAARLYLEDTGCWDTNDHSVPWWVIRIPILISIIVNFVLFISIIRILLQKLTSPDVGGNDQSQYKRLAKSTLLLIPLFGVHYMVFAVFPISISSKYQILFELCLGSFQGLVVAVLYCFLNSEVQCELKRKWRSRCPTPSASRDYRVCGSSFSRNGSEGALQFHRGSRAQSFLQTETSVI
Procedure, shortened: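 Cells were detached with enzyme-free dissociation buffer, washed into stimulation buffer and used at 50,000 cells per data point. Stimuli and AlphaScreen acceptor beads were added for 60 minutes, then lysis buffer with donor beads for 60 to 120 minutes; the AlphaScreen signal reports intracellular cAMP.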

human VPAC2 [3] = target: T2, human VPAC2; test: Filter binding assay, membranes of stable VPAC2 cell line, 125I-labeled VIP tracer (Table 2); settings: read-out: Human VPAC2 Receptor Binding
Procedure, shortened: as §1

human PAC1 = target: T3, human PAC1 (Homo sapiens, UniProt P41586); test: Filter binding assay, membranes of cells transiently transfected with human PAC1, 125I-labeled PACAP-27 tracer (Table 2); set-up: expressed in transfected cells; settings: read-out: Human PAC1 Receptor Binding
T3 sequence (P41586 21-468): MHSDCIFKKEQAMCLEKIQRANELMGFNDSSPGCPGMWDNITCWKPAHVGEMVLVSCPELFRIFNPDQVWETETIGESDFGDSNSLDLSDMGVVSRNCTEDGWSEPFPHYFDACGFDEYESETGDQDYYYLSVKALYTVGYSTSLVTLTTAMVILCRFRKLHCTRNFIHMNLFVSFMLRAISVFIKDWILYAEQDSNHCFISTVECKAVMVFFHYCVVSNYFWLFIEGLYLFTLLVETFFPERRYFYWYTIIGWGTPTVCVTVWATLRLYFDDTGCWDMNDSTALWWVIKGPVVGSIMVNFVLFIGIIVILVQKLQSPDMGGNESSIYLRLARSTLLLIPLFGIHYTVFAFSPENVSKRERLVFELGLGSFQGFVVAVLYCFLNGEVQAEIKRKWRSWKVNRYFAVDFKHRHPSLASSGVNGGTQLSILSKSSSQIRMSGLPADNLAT
Procedure, shortened: as §1

Compound | Rat Serum Stability (estimated purity in % after 18 hours) [1] [%] | IC50 (human VPAC1) [nM] | EC50 (human VPAC2 [2]) [nM] | IC50 (human VPAC2 [3]) [nM] | IC50 (human PAC1) [nM] | Rat Serum Stability (Estimated purity in % after 72 hours) [1] [%]
Hexanoyl-HSDAVFTDNYTRLR[Aib]QVAAVKYLQSIKNKRYGGPSSGAPPPS [Agonist P262] | 10.14 | > 3000 | 0.24 | 0.61 | > 25000 | 
Hexanoyl-HSDAVFTDNYTRLQ[Aib]QVAAKKYLQSIKNKRYGGPSSGAPPPS [Agonist P258] | 9.47 | > 3000 | 0.17 | 0.63 | > 25000 | 
Hexanoyl-HSDAVFTDNYTRLR[Aib]QVAAAKYLQSIKNKRYGGPSSGAPPPS [Agonist P263] | 11.72 | 2680 | 0.07 | 0.38 | 636 | 
Hexanoyl-HSDAVFTDNYTRLRKQVAAYKYLQSIKNKRYGGPSSGAPPPS [Agonist P147] | 0.07 | 107 | 0.13 | 0.24 | 464 | 
Hexanoyl-HSDAVFTDNYTRLRK(Ac)QVAAK(Ac)KYLQSIKNKRYGGPSSGAPPPS [Agonist P193] | 0.25 | 250 | 0.18 | 0.37 | 542 | 
Hexanoyl-HSDAVFTDNYTRL[Aib]KQVAAVKYLQSIKNKRYGGPSSGAPPPS [Agonist P269] | 23.85 | > 3000 |  | 10.1 | > 25000 | 
Hexanoyl-HSDAVFTDNYTRLRKQVAAKKILQSIKNKRYGGPSSGAPPPS [Agonist P133] | <2.00 | 470 |  | 5.3 | 1940 | 
Hexanoyl-HSDAVFTDNYTRLRKQVAAKKYLQSIKNKRYGGPSSGAPPPC [Agonist P120] | 5 |  | 0.06 | 0.44 | 577 | 
Hexanoyl-HSDAVFTDNYTRL[Aib]KQVAALKYLQSIKNKRYGGPSSGAPPPS [Agonist P259] | 17.65 | 3460 |  | 13.2 | > 3000 | 
Hexanoyl-HSDAVFTYNYTRLRKQVAAKKYLQSIKNKRYGGPSSGAPPPS [Agonist P163] | <1.25 | 35.7 |  | 2 | 238 | 
Hexanoyl-HSDAVFTDNYTRL[Aib]KQVAA[Aib]KYLQSIKNKRYGGPSSGAPPPS [Agonist P242] | 40.28 | > 3000 |  | 6.78 | > 25000 | 3.8
Hexanoyl-HSDAVFTDNYTRLRFQVAAKKYLQSIKNKRYGGPSSGAPPPS [Agonist P180] | 1.14 | > 3000 |  | 5.63 | 589 | 
CCCCCC(=O)N[C@@H](Cc1c[nH]cn1)C(=O)N[C@@H](CO)C(=O)N[C@@H](CC(=O)O)C(=O)N[C@@H](C)C(=O)N[C@H](C(=O)N[C@@H](Cc1ccccc1)C(=O)N[C@H](C(=O)N[C@@H](CC(=O)O)C(=O)N[C@@H](CC(N)=O)C(=O)N[C@@H](Cc1ccc(O)cc1)C(=O)N[C@H](C(=O)N[C@@H](CCCNC(=N)N)C(=O)N[C@@H](CC(C)C)C(=O)NC(C)(C)C(=O)N[C@@H](CCCCN)C(=O)N[C@@H](CCC(N)=O)C(=O)N[C@H](C(=O)N[C@@H](C)C(=O)N[C@@H](C)C(=O)NC(C)(C)C(=O)N[C@@H](CCCCN)C(=O)N[C@@H](Cc1ccc(O)cc1)C(=O)N[C@@H](CC(C)C)C(=O)N[C@@H](CCC(N)=O)C(=O)N[C@@H](CO)C(=O)N[C@H](C(=O)N[C@@H](CCCCN)C(=O)N[C@@H](CCC(N)=O)C(=O)NCC(=O)NCC(=O)N1CCC[C@H]1C(=O)N[C@@H](CO)C(=O)N[C@@H](CO)C(=O)NCC(=O)N[C@@H](C)C(=O)N1CCC[C@H]1C(=O)N1CCC[C@H]1C(=O)N1CCC[C@H]1C(=O)N[C@@H](CO)C(=O)O)[C@@H](C)CC)C(C)C)[C@@H](C)O)[C@@H](C)O)C(C)C [Agonist P296] (Hexanoyl-HSDAVFTDNYTRL[Aib]KQVAA[Aib]KYLQSIKQGGPSSGAPPPS-OH; C-terminus assumed) | 42.26 | > 3000 |  | > 100 | > 25000 | 
Hexanoyl-HSDAVFTDNYTRL[Aib]KQLAAK[Aib]YLQSIKNKRYGGPSSGAPPPS [Agonist P241] | 62.55 | > 3000 |  | 18.1 | > 25000 | 
Hexanoyl-HSDAVFTDNYTRL[Aib]KQVAAAKYLQSIKNKRYGGPSSGAPPPS [Agonist P260] | 28.57 | 3320 |  | 4.79 | > 3000 | 
CCCCCC(=O)N[C@@H](Cc1c[nH]cn1)C(=O)N[C@@H](CO)C(=O)N[C@@H](CC(=O)O)C(=O)N[C@@H](C)C(=O)N[C@H](C(=O)N[C@@H](Cc1ccccc1)C(=O)N[C@H](C(=O)N[C@@H](CC(=O)O)C(=O)N[C@@H](CC(N)=O)C(=O)N[C@@H](Cc1ccc(O)cc1)C(=O)N[C@H](C(=O)N[C@@H](CCCNC(=N)N)C(=O)N[C@@H](CC(C)C)C(=O)NC(C)(C)C(=O)N[C@@H](CCCCN)C(=O)N[C@@H](CCC(N)=O)C(=O)N[C@H](C(=O)N[C@@H](C)C(=O)N[C@@H](C)C(=O)NC(C)(C)C(=O)N[C@@H](CCCCN)C(=O)N[C@@H](Cc1ccc(O)cc1)C(=O)N[C@@H](CC(C)C)C(=O)N[C@@H](CCC(N)=O)C(=O)N[C@@H](CO)C(=O)N[C@H](C(=O)N[C@@H](CCCCN)C(=O)N[C@@H](CCC(N)=O)C(=O)N[C@@H](CCCCN)C(=O)NCC(=O)NCC(=O)N1CCC[C@H]1C(=O)N[C@@H](CO)C(=O)N[C@@H](CO)C(=O)NCC(=O)N[C@@H](C)C(=O)N1CCC[C@H]1C(=O)N1CCC[C@H]1C(=O)N1CCC[C@H]1C(=O)N[C@@H](CO)C(=O)O)[C@@H](C)CC)C(C)C)[C@@H](C)O)[C@@H](C)O)C(C)C [Agonist P293] (Hexanoyl-HSDAVFTDNYTRL[Aib]KQVAA[Aib]KYLQSIKQKGGPSSGAPPPS-OH; C-terminus assumed) | 32.70 | > 3000 |  | 16.7 | > 25000 | 
